Measured values published in US9149038B2, “4-amino-6-(heterocyclic)picolinates and 6-amino-2-(heterocyclic)pyrimidine-4-carboxylates and their use as herbicides” (Dow AgroSciences LLC, priority 2013, dated 2015).
Where two headings read alike, the source gives them in different places.

What was measured:
[1] = test system: Key Grass and Sedge Weeds as well as Grass Crops; assay: Post-Emergent Test II: postemergent herbicidal activity, visual rating after 14 d (Table 8); format: in vivo; settings: post-emergence, 336 h; for pest or weed control at 35 g/ha: 35 g ai/ha; for pest or weed control at 70 g/ha: 70 g ai/ha; for pest or weed control at 140 g/ha: 140 g ai/ha; for pest or weed control at 280 g/ha: 280 g ai/ha
Method in brief: (§1)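 Visual 0-100% injury score (0 no injury, 100 complete kill) at 14 d post-spray, relative to untreated plants. Seedlings at 1st-2nd true leaf stage; track sprayer at 187 L/ha, highest rate plus ½×, ¼×, ⅛×, 1/16× serial dilutions. Subirrigated after treatment.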

[2] = test system: Key Broadleaf Weed and Crop Species; assay: Post-Emergent Test II: postemergent herbicidal activity, visual rating after 14 d (Table 7); format: in vivo; settings: post-emergence, 336 h; for pest or weed control at 35 g/ha: 35 g ai/ha; for pest or weed control at 70 g/ha: 70 g ai/ha; for pest or weed control at 140 g/ha: 140 g ai/ha; for pest or weed control at 280 g/ha: 280 g ai/ha
Method in brief: as §1

[3] = barnyardgrass (Echinochloa crus-galli), read-out: Visual Growth Reduction (%) 14 Days After Application ECHCG
[4] = giant foxtail (Setaria faberi), read-out: Visual Growth Reduction (%) 14 Days After Application SETFA
[5] = maize, corn (Zea mays), read-out: Visual Growth Reduction (%) 14 Days After Application ZEAMX
[6] = rice (Oryza sativa), read-out: Visual Growth Reduction (%) 14 Days After Application ORYSA
[7] = wheat, spring (Triticum aestivum), read-out: Visual Growth Reduction (%) 14 Days After Application TRZAS
[8] = yellow nutsedge (Cyperus esculentus), read-out: Visual Growth Reduction (%) 14 Days After Application CYPES
[9] = lambsquarters (Chenopodium album), read-out: Visual Growth Reduction (%) 14 Days After Application CHEAL
[10] = oilseed rape, canola (Brassica napus), read-out: Visual Growth Reduction (%) 14 Days After Application BRSNN
[11] = redroot pigweed (Amaranthus retroflexus), read-out: Visual Growth Reduction (%) 14 Days After Application AMARE
[12] = sunflower (Helianthus annuus), read-out: Visual Growth Reduction (%) 14 Days After Application HELAN
[13] = velvetleaf (Abutilon theophrasti), read-out: Visual Growth Reduction (%) 14 Days After Application ABUTH
[14] = wild poinsettia (Euphorbia heterophylla), read-out: Visual Growth Reduction (%) 14 Days After Application EPHHL

## Nc1c(F)c(-c2cccc3c2OCO3)nc(C(=O)O)c1Cl [Compound 72, 4-Amino-6-(benzo[d][1,3]dioxol-4-yl)-3-chloro-5-fluoropicolinic acid]
[1]; [3]
  pest or weed control at 35 g/ha: 0 to 29%
  pest or weed control at 70 g/ha: 0 to 29%
  pest or weed control at 140 g/ha: 0 to 29%
  pest or weed control at 280 g/ha: 0 to 29%
[1]; [4]
  pest or weed control at 35 g/ha: 0 to 29%
  pest or weed control at 70 g/ha: 0 to 29%
  pest or weed control at 140 g/ha: 0 to 29%
  pest or weed control at 280 g/ha: 0 to 29%
[1]; [5]
  pest or weed control at 35 g/ha: 0 to 29%
  pest or weed control at 70 g/ha: 0 to 29%
  pest or weed control at 140 g/ha: 0 to 29%
  pest or weed control at 280 g/ha: 0 to 29%
[1]; [6]
  pest or weed control at 35 g/ha: 0 to 29%
  pest or weed control at 70 g/ha: 0 to 29%
  pest or weed control at 140 g/ha: 0 to 29%
  pest or weed control at 280 g/ha: 0 to 29%
[1]; [7]
  pest or weed control at 35 g/ha: 0 to 29%
  pest or weed control at 70 g/ha: 0 to 29%
  pest or weed control at 140 g/ha: 0 to 29%
  pest or weed control at 280 g/ha: 0 to 29%
[1]; [8]
  pest or weed control at 35 g/ha: 0 to 29%
  pest or weed control at 70 g/ha: 0 to 29%
  pest or weed control at 140 g/ha: 0 to 29%
  pest or weed control at 280 g/ha: 0 to 29%
[2]; [9]
  pest or weed control at 35 g/ha: 95 to 100%
  pest or weed control at 70 g/ha: 95 to 100%
  pest or weed control at 140 g/ha: 95 to 100%
  pest or weed control at 280 g/ha: 95 to 100%
[2]; [10]
  pest or weed control at 35 g/ha: 75 to 84%
  pest or weed control at 70 g/ha: 95 to 100%
  pest or weed control at 140 g/ha: 95 to 100%
  pest or weed control at 280 g/ha: 95 to 100%
[2]; [11]
  pest or weed control at 35 g/ha: 95 to 100%
  pest or weed control at 70 g/ha: 95 to 100%
  pest or weed control at 140 g/ha: 95 to 100%
  pest or weed control at 280 g/ha: 95 to 100%
[2]; [12]
  pest or weed control at 35 g/ha: 95 to 100%
  pest or weed control at 70 g/ha: 95 to 100%
  pest or weed control at 140 g/ha: 95 to 100%
  pest or weed control at 280 g/ha: 95 to 100%
[2]; [13]
  pest or weed control at 35 g/ha: 75 to 84%
  pest or weed control at 70 g/ha: 95 to 100%
  pest or weed control at 140 g/ha: 95 to 100%
  pest or weed control at 280 g/ha: 95 to 100%
[2]; [14]
  pest or weed control at 35 g/ha: 0 to 29%
  pest or weed control at 70 g/ha: 0 to 29%
  pest or weed control at 140 g/ha: 0 to 29%
  pest or weed control at 280 g/ha: 0 to 29%
